Assay results from patent publication US10588313B1, “Compounds of fatty acids and ammonium fatty acid salts” (Falcon Lab, LLC, priority 2019, dated 2020).

Tests used:
[1] = test system: Staphylococcus aureus ATCC 6538; assay: ASTM International Method E2315 assessment of antibacterial activity (time kill in suspension); assay type: cell-based; settings: for percent reduction in bacteria: 1% dispersion in water; for percent reduction of the test bacteria: pH 6, 30 seconds contact time
Experimental: A 1:99 mixture of the solid compound described in Experiment 1 was made by adding 0.2 gm. to 19.8 ml. of sterile water. […]. One ml of the inoculated substance was harvested at each contact time and neutralized in 9 ml of D/E broth. Enumerations were performed for each time point using standard microbiologic plating methods. At time zero, the percent reduction in bacteria was already 99.9997%, the limit of detection. The percent reduction at 30 seconds, 2 minutes and 10 minutes were also 99.9997%. When 0.1 ml of the 1% dispersion was diluted with 9.9 ml of sterile water to prepare a 0.1% dispersion and the same tests run, the percent reduction in bacteria count was 99.9997% at the 30-second contact time.

Escherichia coli 8739 = assay: ASTM E2315 antibacterial activity; assay type: cell-based; settings: 1% dispersion, 30 seconds contact time
Experimental: (§1) A 1:99 mixture of the solid compound described in Experiment 1 was made by adding 0.2 gm. to 19.8 ml. of sterile water. Following ASTM International Method E2315 for assessment of antibacterial activity, 10 ml of this uniform mixture was aliquoted into a sterile vessel to produce a 1% dispersion that was then inoculated with the Gram-positive bacterium Staphylococcus aureus ATCC 6538 at 25° C. for a target concentration of 1×10^6 CFU (cells)/ml. One ml of the inoculated substance was harvested at each contact time and neutralized in 9 ml of D/E broth. Enumerations were performed for each time point using standard microbiologic plating methods. At time zero, the percent reduction in bacteria was already 99.9997%, the limit of detection. The percent reduction at 30 seconds, 2 minutes and 10 minutes were also 99.9997%. When 0.1 ml of the 1% dispersion was diluted with 9.9 ml of sterile water to prepare a 0.1% dispersion and the same tests run, the percent reduction in bacteria count was 99.9997% at the 30-second contact time.
(§2) The 1% dispersion described in Example 3 was contacted with the Gram-negative bacteria Escherichia coli 8739 and Pseudomonas aeruginosa 15442 each in the manner described in Example 2. After 30 seconds of contact time, the reductions of the test bacteria were 99.9996% and 99.995% respectively.

[2] = test system: Pseudomonas aeruginosa 15442; assay: ASTM E2315 antibacterial activity; assay type: cell-based; settings: 1% dispersion, 30 seconds contact time
Experimental: as §1, §2

[3] = test system: Enterococcus faecalis 29212; assay: ASTM E2315 antibacterial activity; assay type: cell-based; settings: 1% dispersion, 30 second contact time
Experimental: as §1
The same dispersion used in Examples 4 and 5 was tested against Gram-positive Enterococcus faecalis 29212 in the manner described in Example 2. After 30 second contact time, the bacterial reduction was >99.9986%.

[4] = test system: Salmonella enterica ATCC 10708; assay: AOAC International Use-Dilution Method (hard surface disinfectant, steel penicylinders); assay type: cell-based; settings: 2% dispersion, ten minutes exposure
pH of water dispersion = assay type: physicochemical
Experimental: (§3) A slurry of white solid formed immediately. About 200 ml of distilled water were added with stirring to obtain a clear solution with a pH of 8. […] It melted sharply at 62° C.
After standing for 4 hours, a white, opaque, uniform thin liquid was obtained. The pH of the liquid was 6. The bottle was then shaken vigorously for several minutes. The contents of the bottle changed to a foamy, motionless, thick gel that totally filled the bottle. After standing overnight, the gel remained the same, still filling the bottle. But after standing for 48 hours, the gel reverted to the original thin liquid. Upon shaking the bottle again, the thick gel reappeared.

[5] = Stability of solid and of water dispersion on storage; assay type: physicochemical; settings: no emulsifier or surfactant
From the text: The compounds are believed to form as the result of hydrogen bonding wherein a hydrogen atom covalently bonded to nitrogen becomes attracted to the oxygen of the carboxylic acid forming a hydrogen bond.
Since the compounds are stable at ambient temperatures and pressures and exist as non-hygroscopic crystalline solids, they may be transported as 100% active ingredients to their point of use. […] The compounds can be stored and shipped in any type of container, including plastic, paper or cloth bags, metal, glass or plastic. In an embodiment, the compounds can be transported in such containers to the point of use by mixing with water to produce disinfecting compositions.
When the solid compound is mixed with water, it completely distributes in the water to produce a uniform composition in the absence of any emulsifier, surfactant, soap, wetting agent, dispersing agent or suspending agent. The solid compound, while being water-insoluble, remains stable as a dispersion indefinitely.
as §3

S. aureous = assay: AOAC International Use-Dilution Method, comparison test; settings: 2.5% solution
Experimental: In this test, 60 sterilized steel penicylinders are inoculated by soaking in a test culture of the bacteria. The cylinders are then dried in an incubator. After drying, they are submerged in test tubes containing the test substance and allowed to incubate for ten minutes. They are then aseptically transferred to individual tubes containing neutralization/growth medium. The neutralization/growth medium tubes are shaken and incubated. After the incubation period, tubes are qualitatively assessed for growth of the test organism.
AOAC has defined the passing criteria for this test as a disinfectant to be less than or equal to 3 positive carriers out of 60 when testing against S. aureous.

Streptococcus Group A = settings: even numbered fatty acids C8 to C18; cited from earlier work
Staphlycoccus aureous = settings: even numbered fatty acids C8 to C18; cited from earlier work
Candida albicans = settings: even numbered fatty acids C8 to C18; cited from earlier work

In the case of ammonium di-nonanoate [Example 1], the “percent reduction in bacteria count” value ([1]; 0.1% dispersion in water, 30-second contact time) is reported as 99.9997%, the “percent reduction in bacteria” value ([1]; 30 seconds contact time) is reported as 99.9997% and the “percent reduction in bacteria” value ([1]; 2 minutes contact time) is reported as 99.9997%. For the same compound, the “percent reduction in bacteria” value ([1]; 10 minutes contact time) was 99.9997%, the “percent reduction in bacteria” value ([1]; time zero, 25° C., 1×10^6 CFU/ml, 99.9997% = limit of detection) was 99.9997% and the “percent reduction of the test bacteria” value ([1]; 1% dispersion of solid stored in a plastic container for over 5 years) was greater than 99.9997%. The “reduction of the test bacteria” value (Escherichia coli 8739) was 99.9996%, the “reduction of the test bacteria” value [2] was 99.995% and the bacterial reduction [3] was greater than 99.9986%. The “AOAC disinfectant test result” value [4] was “pass”, the “number of positive test tubes (growth) out of 60 carriers” value ([4]; pass = less than or equal to 1 positive carrier out of 60) was 0 and the “pH of water dispersion” value (pH of water dispersion; 1% dispersion in distilled water) was 6. The “pH of water dispersion” value (pH of water dispersion; 10% dispersion in distilled water) was 6, the “pH of water dispersion” value (pH of water dispersion; concentration not given) was 6 and the “stability of water dispersion on storage” value [5] was “remained unchanged in appearance after months of storage”.
In the case of CCCCCCCCC(=O)O.N [ammonium nonanoate], the “AOAC disinfectant test result” value (S. aureous) is reported as “no disinfectant properties” and the “number of confirmed positive test tubes out of 60 carriers” value (S. aureous; pass = less than or equal to 3 positive carriers out of 60) is reported as 60.
For ammonium di-octanoate [Example 10], the “percent reduction of the test bacteria” value ([1]; 0.5% dispersion in water) was greater than 99.988% and the “pH of water dispersion” value (pH of water dispersion; 0.5% dispersion in distilled water) was 6.
For CCCCCCCCCC(=O)O [capric acid], the “antimicrobial activity among fatty acids tested” value (Streptococcus Group A) is listed as “highest activity”, the “antimicrobial activity among fatty acids tested” value (Staphlycoccus aureous) is listed as “highest activity” and the “antimicrobial activity among fatty acids tested” value (Candida albicans) is listed as “highest activity”.
